# Measurements reported in US12259352B2, “Membrane enhanced sensors” (University Of Cincinnati, priority 2018, dated 2025).
# Key:
# [1] = cited from earlier work
# [2] = Cortisol transport through hydrophobic barrier (track-etch membrane with castor oil) to electrochemical aptamer sensor, FIG. 6B; settings: sensor solution hundreds of micrometers thick; track-etch membrane of 10% porosity filled with castor oil
Structure (SMILES),Solubility in Water (in words) [1],concentration lag time (time for sensor solution to reach 90% of sample solution concentration) [2]
CCCCC/C=C\C/C=C\C/C=C\C/C=C\CCCC(=O)O [Arachidonic Acid],Negligible,
CCCCCC/C=C\CCCCCCCC(=O)O [Palmitoleic Acid],Low,
C[C@]12CCC(=O)C=C1CC[C@@H]1[C@@H]2[C@@H](O)C[C@@]2(C)[C@H]1CC[C@]2(O)C(=O)CO [cortisol],,~30 min
